Tests used:
[1] = tested on: MT-4 cells; experiment: Cytotoxicity in MT-4 cells, MTT; assay type: cell-based, human; settings: viability of MT-4 cells, MTT assay
Description: (§1) The cells were infected by incubation with different titers of the HIV-1 strains for 2 hrs at 37° C. in the presence or absence of the AAC of the invention. Then the cells were washed from the virus by centrifugation at 400 g and the supernatants were discarded. The cells were resuspended in culture medium, supplemented with different concentrations of the test compounds. The cells were allowed to proliferate for 5 days, the number of viable cells was quantified by a tetrazolium-based colorimetric method (CellTiter 96® AQueous One solution Cell Proliferation Assay, Promega). Anti-HIV activity in P4-CCR5 MAGI cells was done as follows: cells (1×10^5/ml) were infected with 10 ng/ml of p24 antigen of HIV-1 Ba-L in the presence of varying concentrations of the test compound. 24 hours post infection, cells were washed twice with PBS and resuspended in the medium containing the appropriate drug concentration. Five days after infection the cells were washed with PBS and evaluated for β-galactosidase activity.

[2] = tested on: TAR RNA; experiment: RNase A footprinting of TAR RNA; assay type: binding, HIV-1; settings: 1 μM TAR, 200 pM RNase A
Description: In a typical experiment 10 μl of 5 mM cacodylate buffer pH 6.5, containing 25 mM KCl and 50-100 ng 5′ ^32P-labeled TAR RNA (approximately 0.5-1 μM) were incubated with 200 pM RNase A (Sigma) at room temperature for 10 minutes in the presence of Tat R52 and the conjugates of the invention at various concentrations. In the competition experiments, the mixture was supplemented with 0.5 μg yeast tRNA (Sigma). After the incubation, 10 μl of formamide/bromphenol blue loading buffer was added to the samples. The samples were heated to 80° C. for 2 min and were resolved by electrophoresis on 40 cm×0.8 mm 20% polyacrylamide denaturing gel (7M urea) for 3 hours at 55° C. The results were visualized by a phosphoimager as described above and quantitated using ImageQuant software.
TAR RNA and RNase A concentrations were established by co-titration. To produce a “single-hit” kinetics conditions, 1 μM TAR versus 200 pM RNase A were selected. Tat R52 and AAC concentrations were determined by titration. […] RNase A cleaved TAR RNA in an uneven manner (FIG. 4A., lane 2). The most susceptible regions for cleavage were the single-stranded loop, nucleotides U31-G34 as well as C24 and U25 of the bulge. Strong cleavage was also observed at G21-G41 and A20-U42 pairs (lower stem). Binding of R52 (2-4 μM) caused a weakening of the bands in the upper stem region, (G26-C39, A27-C38, as well as U40) (FIG. 4A., lanes 3, 4). At 4 μM R52, the cleavage at G34 (loop) was enhanced, as well as a certain enhancement of bands A20, G21, U23 and U25 was observed. Remarkably, the band corresponding to the R52-TAR complex still was observed on the gels even after electrophoresis under strongly denaturing conditions. In the presence of R4K (10-20 μM), the upper stem (G26-C29), the lower stem and the bulge (G21-U23, partially C24 and U25) were protected as well as C38, C39 and U40. Cleavage at C19 and A20 of the lower stem and C30, G33 and G34 of the loop was enhanced by 10 μM R4K, whereas with 20 μM R4K the protection of C30, G34 and A20-G21 was observed (FIG. 4A., lanes 5, 6). […] Cleavages at C19-A20 in the lower stem as well as at G30 and G34 in the loop were observed (FIG. 4A., lanes 7, 8). In the presence of GB4K (20 μM) no significant protection was observed.

[3] = tested on: equine infectious anemia virus (EIAV); experiment: Antiviral activity in EIAV-infected ED fibroblasts; assay type: cell-based; settings: for EIAV replication in ED cells (FIG. 8): R3G at 12.5 and 25 μM, R4K at 50 and 100 μM, 10 pfu per cell
Description: Both equine dermal fibroblasts (ED) and Equine Infectious Anemia Virus (EIAV), Wyoming isolate (Malmquist et al., 1973) were gifts from Profs. A. Yaniv and A. Gazit, from the Sackler Medical School of the Tel-Aviv University, Israel. ED cells were plated on plastic 6-well tissue culture plates (Nunclone) at density of […] per well in 2 ml of DMEM/10% FCS (fetal calf serum). The medium was removed after 12-20 hours and the cells were inoculated for 2 hours with 0.5 ml DMEM/10% FCS containing 5×10^6 pfu (plaque forming units) of EIAV and 10 μg/ml of polybrene (hexadimetrine bromide, Sigma) (Carpenter and Chesebro, 1989). Following the incubation, another 2.5 ml of DMEM/10% FCS was added to each well. […] Every […], 1.2 ml samples of the medium were collected and replaced with same amount of medium, containing radioactive uridine and the tested. The samples were clarified from cell debris by spinning at 12000 rpm for 5 minutes on the Eppendorf centrifuge. Viral particles from the clarified supernatants were collected by ultracentrifugation at 75000 rpm, 4° C. on the Beckman TL 100 centrifuge using TLA 100.2 rotor (Cheevers et al., 1977). The supernatants were carefully discarded and the pellet was resuspended in 200 μl of 1% SDS/5% Tritone X-100, mixed with 1 ml Ultima Gold scintillation liquid (Packard) and counted on LS 1701 Bruker scintillation counter. Typical duration of the experiment was 15 days; EIAV growth curves in the presence of various concentrations of the conjugates in the medium were obtained. Development of the cytopathic effect (cpe) in the infected ED cells was monitored by light microscopy.
Equine infectious anemia virus (EIAV) of Wyoming strain is adapted to grow in equine dermal fibroblasts (ED), without damaging them with a titer of 1 μfu per cell (Malmquist virus). […] In the absence of inhibitors, EIAV proliferated in the ED cells reaching a plato 9-12 days after infection (FIG. 8). […] Development of cpe started 10-12 days after infection, reaching a maximum on days 15-17, followed by rapid cell death and exfoliation from the plastic bottom of the well.

[4] = tested on: HIV-1 NL4-3; experiment: Anti-HIV assay, MTT, MT-4 cells; assay type: cell-based
Description: (§2) The HIV-1 strains NL4-3 and Ba-L and the CD4^+lymphocytic cell lines SUP-T1, MT-4 and MT-2 and P4-CCR5 MAGI cells were obtained from the MRC AIDS reagent program or the NIH, AIDS Research and Reference Reagent Program.
as §1

[5] = tested on: HIV-1 Ba-L; experiment: Anti-HIV assay, β-galactosidase activity in P4-CCR5 MAGI cells; assay type: cell-based
Description: as §2, §1

| Compound | CC50 [1] [µM] | concentration giving effective protection of TAR [2] [µM] | EIAV replication in ED cells (FIG. 8) [3] | EC50 [4] [µM] | EC50 [5] [µM] | phenotype of EIAV-infected ED cells ([3]; 25 μM, day 13-15) | inhibition of cpe development ([3]; 25 and 50 μM, after 13-15 days) | viral titer compared to control ([3]; added during cpe onset (day 12-13), read at day 15) |
| --- | --- | --- | --- | --- | --- | --- | --- | --- |
| N=C(N)NCCCC(N)C(=O)NCC1OC(OC2C(NC(=O)C(N)CCCNC(=N)N)CC(NC(=O)C(N)CCCNC(=N)N)C(OC3OC(CO)C(O)C(NC(=O)C(N)CCCNC(=N)N)C3O)C2O)C(O)C(O)C1O (stereo not drawn) [R4K, Tetraargininamido-kanamycin A conjugate] | > 1130 | 10 | inhibited the viral growth | 31 | > 113 | – | – | – |
| Triargininamido-gentamicin conjugate [R3G] | – | 4 | inhibited the viral growth | 15 | 29 | preserved normal fibroblast phenotype | noticeable inhibition of the cpe development | decreased at least twice |

— patent US6642365B1, “Anti-(retro)viral conjugates of saccharides and acetamidino or guanidino compounds” (Yeda Research and Development Co. Ltd., priority 2001, dated 2003)
